Tests used:
Type in all cases: physicochemical
[1] = Additives for improving re-solubility during storage, sucrose as excipient; settings: lyophilized, Polysorbate 20 0.5%, Sucrose 9.6%
Protocol: (§1) First, Polysorbate 20 was dissolved in distilled water in a concentration of 0.5%, and sucrose and a variety of additives such concentrations as listed in Table 9. Next, 20 mg of the active component (KRN7000) was weighed and stirred in 100 ml of the solvents in a heated bath to 80° C. for 20 minutes in order to form a solution. After cooling with running water, the mixture was filtered through a 0.22 μm filter, and transparent colorless glass vials having a volume of 5 ml were charged with a 1 ml portion of each of a variety of solutions thus obtained and subjected to lyophilization. Lyophilization was carried out under the condition of preliminary freezing at −40° C. for 2 hours and drying at −20° C. for 24 hours, 10° C. for 12 hours, and finally at 25° C. for 5 hours to give the lyophilized product. The degree of vacuum was set at 0.1 Torr or less during drying step.
After the lyophilization step, the lyophilized composition thus obtained was stored at 25° C. or 50° C. , or at both of these temperatures. After storage at 25° C. for 1 month or at 50° C. for 3 days, the lyophilized composition was reconstituted in 1 ml of distilled water for injection, left standing for 30 minutes, and solubility was judged when the foams generated on reconstitution disappeared. The samples judged in solution were further stored, and judged again of their solubility after storage at 25° C. for 4 months or at 50° C. for 2 weeks.
(§2) The solubility was judged by cleaning the outside of the vial and placing it beneath the white light source in a darkroom for observation with naked eye at the position of a luminous intensity of about 5,000 lux. When the sample was clear with no precipitates, it was judged that the active component was dissolved.

[2] = Additives for improving re-solubility during storage, mannitol as excipient; settings: lyophilized, Polysorbate 20 0.5%, 25° C.
Protocol: as §1, with “mannitol” for “sucrose”, “8.” for “9.”, “with” for “with a”
After the lyophilization step, the lyophilized composition was stored at 25° C. After storage for 1 month, the lyophilized composition was reconstituted in 1 ml of distilled water for injection, left standing for 30 minutes, and solubility was judged when the foams generated on reconstitution disappeared. The samples judged in solution were further stored, and judged again of their solubility after 4 months.
as §2

[3] = Cooling condition after dissolution with heating 1: turbidity (absorbance 660 nm, kaolin standard); settings: Polysorbate 20 0.5%, histidine 0.75%, sucrose 5.6%; cooling 73° C. → 30° C., 23 minutes; reconstituted in 1 ml distilled water
Protocol: First, Polysorbate 20 was dissolved in distilled water in a concentration of 0.5%, histidine in a concentration of 0.75%, and sucrose in a concentration of 5.6%. Next, 800 mg of the active component (KRN7000) was weighed and stirred in 4 liters of the solvent under heating at 73° C. for 30 minutes in order to form a solution. After dissolution, the mixture was divided into about 500 ml portions, cooled with stirring from 73° C. to 30° C. (6 minutes), from 73° C. to 30° C. (23 minutes), and from 73° C. to 30° C. (120 minutes). […]
The turbidity of the solutions prepared respective cooling conditions before or after the filtration step, and the lyophilized composition thus obtained which were reconstituted after leaving standing at room temperature (25° C. ) for 3 hours from the lyophilization step, were measured. In this connection, the lyophilized composition was reconstituted in 1 ml of distilled water for injection, left standing for 30 minutes, and turbidity was measured when the foams generated on reconstitution disappeared.
The turbidity was measured by the following method: various dilutions including 50-fold dilution (kaolin 2 μg/ml, turbidity 2.00), 100-fold dilution (kaolin 1 μg/ml, turbidity 1.00), and 200-fold dilution (kaolin 0.5 μg/ml, turbidity 0.50) were prepared by diluting the turbidity standard (kaolin, 0.1 mg/ml) with distilled water. […]

CCCCCCCCCCCCCCCCCCCCCCCCCC(=O)N[C@@H](CO[C@H]1O[C@H](CO)[C@H](O)[C@H](O)[C@H]1O)[C@H](O)[C@H](O)CCCCCCCCCCCCCC [KRN7000, (2S,3S,4R)-1-(α-D-galactopyranosyloxy)-2-hexacosanoylamino-3,4-octadecanediol]
Re-solubility after storage (by naked eye) ([1]; Arginine, 0.1%, 50° C., 3 days): + (not dissolved (or deposited)) | Re-solubility after storage (by naked eye) ([1]; Glycerol, 1%, 25° C., 1 month): + (not dissolved (or deposited)) | Re-solubility after storage (by naked eye) ([1]; Glycine, 0.1%, 50° C., 3 days): + (not dissolved (or deposited)) | Re-solubility after storage (by naked eye) ([1]; Glycine, 1%, 50° C., 3 days): + (not dissolved (or deposited)) | Re-solubility after storage (by naked eye) ([1]; Histidine, 2%, 50° C., 2 weeks): − (dissolved) | Re-solubility after storage (by naked eye) ([1]; Histidine, 2%, 50° C., 3 days): − (dissolved) | Re-solubility after storage (by naked eye) ([1]; Pluronic F68, 0.1%, 25° C., 1 month): − (dissolved) | Re-solubility after storage (by naked eye) ([1]; Pluronic F68, 0.1%, 25° C., 4 month): + (not dissolved (or deposited)) | Re-solubility after storage (by naked eye) ([1]; Pluronic F68, 1%, 25° C., 1 month): − (dissolved) | Re-solubility after storage (by naked eye) ([1]; Pluronic F68, 1%, 25° C., 4 month): + (not dissolved (or deposited)) | Re-solubility after storage (by naked eye) ([1]; Propylene glycol, 1%, 25° C., 1 month): + (not dissolved (or deposited)) | Re-solubility after storage (by naked eye) ([1]; Sodium deoxycholate, 0.1%, 25° C., 1 month): − (dissolved) | Re-solubility after storage (by naked eye) ([1]; Sodium deoxycholate, 0.1%, 25° C., 4 month): + (not dissolved (or deposited)) | Re-solubility after storage (by naked eye) ([1]; Sodium deoxycholate, 1%, 25° C., 1 month): − (dissolved) | Re-solubility after storage (by naked eye) ([1]; Sodium deoxycholate, 1%, 25° C., 4 month): − (dissolved) | Re-solubility after storage (by naked eye) ([1]; Sodium deoxycholate, 1%, 50° C., 2 weeks): − (dissolved) | Re-solubility after storage (by naked eye) ([1]; Sodium deoxycholate, 1%, 50° C., 3 days): − (dissolved) | Re-solubility after storage (by naked eye) ([1]; no additive, 25° C., 1 month): − (dissolved) | Re-solubility after storage (by naked eye) ([1]; no additive, 25° C., 4 month): + (not dissolved (or deposited)) | Re-solubility after storage (by naked eye) ([1]; no additive, 50° C., 3 days): + (not dissolved (or deposited)) | Re-solubility after storage (by naked eye) ([2]; Mannitol 10%, Sodium deoxycholate, 1%, 1 month): − (dissolved) | Re-solubility after storage (by naked eye) ([2]; Mannitol 10%, Sodium deoxycholate, 1%, 4 months): − (dissolved) | Re-solubility after storage (by naked eye) ([2]; Mannitol 10%, no additive, 1 month): − (dissolved) | Re-solubility after storage (by naked eye) ([2]; Mannitol 10%, no additive, 4 months): + (not dissolved (or deposited)) | Re-solubility after storage (by naked eye) ([2]; Mannitol 15%, Glycerol, 0.1%, 1 month): + (not dissolved (or deposited)) | Re-solubility after storage (by naked eye) ([2]; Mannitol 15%, Glycerol, 0.1%, 4 months): + (not dissolved (or deposited)) | Re-solubility after storage (by naked eye) ([2]; Mannitol 15%, Glycerol, 1%, 1 month): + (not dissolved (or deposited)) | Re-solubility after storage (by naked eye) ([2]; Mannitol 15%, Glycerol, 1%, 4 months): + (not dissolved (or deposited)) | Re-solubility after storage (by naked eye) ([2]; Mannitol 15%, PEG400, 1%, 1 month): + (not dissolved (or deposited)) | Re-solubility after storage (by naked eye) ([2]; Mannitol 15%, PEG400, 1%, 4 months): + (not dissolved (or deposited)) | Re-solubility after storage (by naked eye) ([2]; Mannitol 15%, Sodium deoxycholate, 1%, 1 month): + (not dissolved (or deposited)) | Re-solubility after storage (by naked eye) ([2]; Mannitol 15%, Sodium deoxycholate, 1%, 4 months): + (not dissolved (or deposited)) | Re-solubility after storage (by naked eye) ([2]; Mannitol 15%, no additive, 1 month): + (not dissolved (or deposited)) | Re-solubility after storage (by naked eye) ([2]; Mannitol 15%, no additive, 4 months): + (not dissolved (or deposited)) | Turbidity Lyophilized composition [3]: 0.36
